Reference: ChEMBL document CHEMBL3885861, “Open TG-GATES”

Organism: Rattus norvegicus
Assay: Open TG-GATES - Regimen: Single
Format: toxicity, organism-based, Sprague-Dawley
Parameters: regimen Single, gender Male, age 6 weeks
Details: in vivo, po, route gavage; for APTT / Bas / Eos / Fbg / Hb / Ht / Lym / MCH / MCV / Mono / Neu / PT / Plat / RBC / Ret / WBC: tissue Blood; for KIDNEY_L / KIDNEY_R / KIDNEY_TOTAL: tissue Kidney; for LIVER: tissue Liver; for ALP / ALT / AST / BUN / CRE / Ca / Cl / DBIL / GLC / IP / K / LDH / Na / PL / RALB / TBIL / TG / TP / gamma-GTP: tissue Plasma
[1] = 0 mg/kg, 3 h, dose level Control
[2] = 0 mg/kg, 6 h, dose level Control
[3] = 0 mg/kg, 9 h, dose level Control
[4] = 0 mg/kg, 24 h, dose level Control

## NC(=O)N1c2ccccc2C=Cc2ccccc21 [CARBAMAZEPINE]
[1]
  TERMINAL_BW: 216.5 g
  APTT: 20 s
  Bas: 0%
  Eos: 1%
  Fbg: 213.8 mg/dL
  Hb: 13.4 g/dL
  Ht: 38.6%
  Lym: 80%
  MCH: 21.9 pg
  MCV: 63.2 fL
  Mono: 2%
  Neu: 16%
  PT: 12.4 s
  Plat: 131 x10_4/uL
  RBC: 611.8 x10_4/ul
  Ret: 6.3%
  WBC: 106.8 x10_2/uL
  KIDNEY_L: 1 g
  KIDNEY_R: 0.9 g
  KIDNEY_TOTAL: 1.9 g
  LIVER: 10 g
  ALP: 846.4 IU/L
  ALT: 33 IU/L
  AST: 64.6 IU/L
  BUN: 11.6 mg/dL
  CRE: 0.4 mg/dL
  Ca: 10.7 mg/dL
  Cl: 103 meq/L
  DBIL: 0.082 mg/dL
  GLC: 199.2 mg/dL
  IP: 9 mg/dL
  K: 3.6 meq/L
  LDH: 176.6 IU/L
  Na: 141.2 meq/L
  PL: 131.8 mg/dL
  RALB: 3.3 g/dL
  TBIL: 0.1 mg/dL
  TG: 66.2 mg/dL
  TP: 5.4 g/dL
  gamma-GTP: 0.8 IU/L
[2]
  TERMINAL_BW: 213.8 g
  APTT: 19.3 s
  Bas: 0%
  Eos: 1%
  Fbg: 220.2 mg/dL
  Hb: 13.7 g/dL
  Ht: 40%
  Lym: 77%
  MCH: 21.3 pg
  MCV: 62.5 fL
  Mono: 3.2%
  Neu: 17.6%
  PT: 12.5 s
  Plat: 115.6 x10_4/uL
  RBC: 640.4 x10_4/ul
  Ret: 6.6%
  WBC: 94.2 x10_2/uL
  KIDNEY_L: 1 g
  KIDNEY_R: 1 g
  KIDNEY_TOTAL: 2 g
  LIVER: 9.2 g
  ALP: 858.4 IU/L
  ALT: 37 IU/L
  AST: 65.6 IU/L
  BUN: 8.8 mg/dL
  CRE: 0.4 mg/dL
  Ca: 10.5 mg/dL
  Cl: 103 meq/L
  DBIL: 0.08 mg/dL
  GLC: 196.8 mg/dL
  IP: 9.4 mg/dL
  K: 3.9 meq/L
  LDH: 175.2 IU/L
  Na: 140.2 meq/L
  PL: 133.4 mg/dL
  RALB: 3.3 g/dL
  TBIL: 0.1 mg/dL
  TG: 60.4 mg/dL
  TP: 5.5 g/dL
  gamma-GTP: 1.4 IU/L
[3]
  TERMINAL_BW: 211.7 g
  APTT: 22.5 s
  Bas: 0%
  Eos: 1%
  Fbg: 220 mg/dL
  Hb: 13 g/dL
  Ht: 38.2%
  Lym: 78.8%
  MCH: 20.9 pg
  MCV: 61.5 fL
  Mono: 2.2%
  Neu: 17.5%
  PT: 13.2 s
  Plat: 119.7 x10_4/uL
  RBC: 621.8 x10_4/ul
  Ret: 6.6%
  WBC: 89.4 x10_2/uL
  KIDNEY_L: 1 g
  KIDNEY_R: 1 g
  KIDNEY_TOTAL: 2 g
  LIVER: 9.3 g
  ALP: 824.8 IU/L
  ALT: 32 IU/L
  AST: 63.8 IU/L
  BUN: 9.8 mg/dL
  CRE: 0.4 mg/dL
  Ca: 10.3 mg/dL
  Cl: 102 meq/L
  DBIL: 0.07 mg/dL
  GLC: 202.8 mg/dL
  IP: 9.3 mg/dL
  K: 3.9 meq/L
  LDH: 170.4 IU/L
  Na: 140.2 meq/L
  PL: 127 mg/dL
  RALB: 3.3 g/dL
  TBIL: 0.1 mg/dL
  TG: 47 mg/dL
  TP: 5.3 g/dL
  gamma-GTP: 1 IU/L
[4]
  TERMINAL_BW: 225.7 g
  APTT: 21.9 s
  Bas: 0%
  Eos: 0.8%
  Fbg: 215.6 mg/dL
  Hb: 13.7 g/dL
  Ht: 40.7%
  Lym: 79.8%
  MCH: 21.5 pg
  MCV: 63.9 fL
  Mono: 2.4%
  Neu: 15.8%
  PT: 12.1 s
  Plat: 117.9 x10_4/uL
  RBC: 637.2 x10_4/ul
  Ret: 6%
  WBC: 90.1 x10_2/uL
  KIDNEY_L: 1 g
  KIDNEY_R: 1 g
  KIDNEY_TOTAL: 2 g
  LIVER: 10.4 g
  ALP: 990.6 IU/L
  ALT: 39.2 IU/L
  AST: 70.4 IU/L
  BUN: 15.6 mg/dL
  CRE: 0.4 mg/dL
  Ca: 10.6 mg/dL
  Cl: 102.4 meq/L
  DBIL: 0.088 mg/dL
  GLC: 207 mg/dL
  IP: 7.9 mg/dL
  K: 4 meq/L
  LDH: 199 IU/L
  Na: 140.4 meq/L
  PL: 146.2 mg/dL
  RALB: 3.4 g/dL
  TBIL: 0.1 mg/dL
  TG: 93.6 mg/dL
  TP: 5.6 g/dL
  gamma-GTP: 0.8 IU/L
30 mg/kg, 3 h, dose level Low
  TERMINAL_BW: 214.2 g
  APTT: 19.1 s
  Bas: 0%
  Eos: 1%
  Fbg: 212.2 mg/dL
  Hb: 13.3 g/dL
  Ht: 39.3%
  Lym: 78.2%
  MCH: 21.1 pg
  MCV: 62.4 fL
  Mono: 2.4%
  Neu: 17.8%
  PT: 12.2 s
  Plat: 121.8 x10_4/uL
  RBC: 631.2 x10_4/ul
  Ret: 6.3%
  WBC: 97.3 x10_2/uL
  KIDNEY_L: 0.9 g
  KIDNEY_R: 0.9 g
  KIDNEY_TOTAL: 1.9 g
  LIVER: 9.8 g
  ALP: 896 IU/L
  ALT: 34.8 IU/L
  AST: 66.6 IU/L
  BUN: 12.6 mg/dL
  CRE: 0.4 mg/dL
  Ca: 10.6 mg/dL
  Cl: 103.6 meq/L
  DBIL: 0.072 mg/dL
  GLC: 187.8 mg/dL
  IP: 10.1 mg/dL
  K: 3.9 meq/L
  LDH: 177 IU/L
  Na: 142.4 meq/L
  PL: 143.8 mg/dL
  RALB: 3.3 g/dL
  TBIL: 0.1 mg/dL
  TG: 51.8 mg/dL
  TP: 5.5 g/dL
  gamma-GTP: 0.6 IU/L
30 mg/kg, 6 h, dose level Low
  TERMINAL_BW: 211.1 g
  APTT: 21.9 s
  Bas: 0%
  Eos: 1%
  Fbg: 203.8 mg/dL
  Hb: 13.3 g/dL
  Ht: 38.6%
  Lym: 80.6%
  MCH: 20.9 pg
  MCV: 60.9 fL
  Mono: 2.6%
  Neu: 14.8%
  PT: 12.9 s
  Plat: 126.6 x10_4/uL
  RBC: 634.2 x10_4/ul
  Ret: 6.1%
  WBC: 83.2 x10_2/uL
  KIDNEY_L: 1 g
  KIDNEY_R: 1 g
  KIDNEY_TOTAL: 1.9 g
  LIVER: 9.2 g
  ALP: 896 IU/L
  ALT: 34.4 IU/L
  AST: 66 IU/L
  BUN: 9.6 mg/dL
  CRE: 0.4 mg/dL
  Ca: 10.4 mg/dL
  Cl: 103.2 meq/L
  DBIL: 0.078 mg/dL
  GLC: 197.6 mg/dL
  IP: 9.6 mg/dL
  K: 4 meq/L
  LDH: 194 IU/L
  Na: 140.6 meq/L
  PL: 130.6 mg/dL
  RALB: 3.3 g/dL
  TBIL: 0.1 mg/dL
  TG: 61.6 mg/dL
  TP: 5.5 g/dL
  gamma-GTP: 0.8 IU/L
30 mg/kg, 9 h, dose level Low
  TERMINAL_BW: 210.1 g
  APTT: 18.7 s
  Bas: 0%
  Eos: 0.8%
  Fbg: 216.4 mg/dL
  Hb: 13.1 g/dL
  Ht: 38.3%
  Lym: 75.2%
  MCH: 21.3 pg
  MCV: 62.2 fL
  Mono: 1.6%
  Neu: 21.4%
  PT: 13 s
  Plat: 113.3 x10_4/uL
  RBC: 616.2 x10_4/ul
  Ret: 6.8%
  WBC: 83.2 x10_2/uL
  KIDNEY_L: 1 g
  KIDNEY_R: 1 g
  KIDNEY_TOTAL: 2 g
  LIVER: 8.6 g
  ALP: 814.2 IU/L
  ALT: 31.4 IU/L
  AST: 62.6 IU/L
  BUN: 11.8 mg/dL
  CRE: 0.4 mg/dL
  Ca: 10.3 mg/dL
  Cl: 102 meq/L
  DBIL: 0.076 mg/dL
  GLC: 190.4 mg/dL
  IP: 9.4 mg/dL
  K: 4.1 meq/L
  LDH: 175 IU/L
  Na: 140.4 meq/L
  PL: 137.2 mg/dL
  RALB: 3.3 g/dL
  TBIL: 0.1 mg/dL
  TG: 59.6 mg/dL
  TP: 5.6 g/dL
  gamma-GTP: 0.8 IU/L
30 mg/kg, 24 h, dose level Low
  TERMINAL_BW: 228 g
  APTT: 19.6 s
  Bas: 0%
  Eos: 1%
  Fbg: 205.8 mg/dL
  Hb: 13.4 g/dL
  Ht: 39.6%
  Lym: 78.2%
  MCH: 21.4 pg
  MCV: 63.3 fL
  Mono: 2.4%
  Neu: 18%
  PT: 12.1 s
  Plat: 118 x10_4/uL
  RBC: 626.4 x10_4/ul
  Ret: 5.8%
  WBC: 103.7 x10_2/uL
  KIDNEY_L: 1.1 g
  KIDNEY_R: 1.1 g
  KIDNEY_TOTAL: 2.1 g
  LIVER: 11.2 g
  ALP: 892.6 IU/L
  ALT: 34 IU/L
  AST: 64.6 IU/L
  BUN: 16.2 mg/dL
  CRE: 0.4 mg/dL
  Ca: 10.6 mg/dL
  Cl: 102.4 meq/L
  DBIL: 0.1 mg/dL
  GLC: 214 mg/dL
  IP: 7.7 mg/dL
  K: 4.2 meq/L
  LDH: 198.8 IU/L
  Na: 140.2 meq/L
  PL: 151.2 mg/dL
  RALB: 3.3 g/dL
  TBIL: 0.1 mg/dL
  TG: 99.8 mg/dL
  TP: 5.5 g/dL
